# Measurements reported in article PMC9415822, “Amphotericin B-PEG Conjugates of ZnO Nanoparticles: Enhancement Antifungal Activity with Minimal Toxicity” (Pharmaceutics, 2022).
# Assays:
# [1] = test system: Candida albicans ATCC 64548; test: In vitro antifungal assay, broth microdilution (MIC/MFC), C. albicans; type: cell-based; conditions: ATCC64548, SDA plates, 37 °C, 48 h
# Method: The broth microdilution method was used to assess the antifungal susceptibility of free AMB, and ZnO, ZnO-AMB, and ZnO-AMB-PEG nanoparticles against Candida albicans ATCC 64548 and Cryptococcus neoformans ATCC 90112 according to the Clinical Laboratory and Standards Institute Guidelines (CLSI, 2015). The nanoparticle solutions were serially diluted in sterile saline to obtain dilutions ranging from 5.0 to 0.00625 µg/mL. Aliquots (100 µL) from different dilutions of different preparations were transferred to the wells of 96-well microtiter plate. Fresh cultures of the tested strains were suspended in RPMI 1640 provided with L-glutamine and MOPS at pH 7.0 to prepare suspensions with a turbidity approximating that of 0.5 McFarland Standard. The fungal suspensions were diluted 1:100 with RPMI 1640 to obtain cell density of 1 × 10^5 CFU/mL. Of the prepared fungal suspensions, 100 µL was added to all dilutions of nanoparticle preparations. […] The minimum inhibitory concentration (MIC) was considered as the lowest concentration that inhibited the visible turbidity. The experiment was repeated six times and both positive control (inoculated fungi in broth without any addition) and negative control (sterile broth without fungi) were included in the experiment. The minimum fungicidal concentration (MFC) was determined according to [23].
# [2] = test system: Cryptococcus neoformans ATCC 90112; test: In vitro antifungal assay, broth microdilution (MIC/MFC), C. neoformans; type: cell-based
# Method: The broth microdilution method was used to assess the antifungal susceptibility of free AMB, and ZnO, ZnO-AMB, and ZnO-AMB-PEG nanoparticles against Candida albicans ATCC 64548 and Cryptococcus neoformans ATCC 90112 according to the Clinical Laboratory and Standards Institute Guidelines (CLSI, 2015). The nanoparticle solutions were serially diluted in sterile saline to obtain dilutions ranging from 5.0 to 0.00625 µg/mL. Aliquots (100 µL) from different dilutions of different preparations were transferred to the wells of 96-well microtiter plate. Fresh cultures of the tested strains were suspended in RPMI 1640 provided with L-glutamine and MOPS at pH 7.0 to prepare suspensions with a turbidity approximating that of 0.5 McFarland Standard. The fungal suspensions were diluted 1:100 with RPMI 1640 to obtain cell density of 1 × 10^5 CFU/mL. Of the prepared fungal suspensions, 100 µL was added to all dilutions of nanoparticle preparations. The microtiter plates were incubated at 37 °C for 24 h for C. albicans, and 48 h for C. neoformans. The minimum inhibitory concentration (MIC) was considered as the lowest concentration that inhibited the visible turbidity. […] The minimum fungicidal concentration (MFC) was determined according to [23].
# Male Wistar rats [3] = test: In vivo toxicity: biochemical parameters (kidney and liver functions) after injection; parameters: species or system rat; conditions: 10 mg/kg intraperitoneal for seven days, eighth day
# Method: (§1) Male Wistar rats weighing 180–220 g were used in this study. The animals were housed in rooms with controlled temperature (23 ± 1 °C) and relative humidity (55 ± 5%) and were allowed free access to water and food during acclimatization. Animals were fasted for 24 h before the experiments but could drink water ad libitum. The animal study protocol was approved by the Ethical Committee, Pharmacy College, Prince Sattam Bin Abdulaziz University, Al-Kharj, KSA (approval number: PHARM-11-10-2021).
# (§2) Blood parameters including count of leucocytes (WBC) and red blood cell (RBC), and hemoglobin concentration (Hb), and hemocrit percentage were employed to evaluate the hematological toxicity associated with AMB. Furthermore, the kidney functions were assessed by measuring blood urea nitrogen (BUN) and serum creatinine. Hepatic functions were evaluated by the measure of aspartate transaminase (AST) and alanine transaminase (ALT). Four groups of male Wistar rats, each composed of 5 rats weighing approximately 200 g were used in this study. Three groups were intraperitoneally injected with free AMB, ZnO-AMB or ZnO-AMB-PEG (10 mg/kg body weight) for a continuous seven days. The fourth group was left uninjected as control group. On the eighth day, all rats were anesthetized and euthanized by decapitation for hematological and biochemical assays.
# Male Wistar rats [4] = test: In vivo toxicity: hematological parameters after injection; parameters: species or system rat; conditions: 10 mg/kg intraperitoneal for seven days, blood on eighth day
# Method: as §1, §2
smiles,measurement,setting,value
"C[C@@H]1[C@H](O)[C@@H](C)/C=C/C=C/C=C/C=C/C=C/C=C/C=C/[C@H](O[C@@H]2O[C@H](C)[C@@H](O)[C@H](N)[C@@H]2O)C[C@@H]2O[C@](O)(C[C@@H](O)C[C@@H](O)[C@H](O)CC[C@@H](O)C[C@@H](O)CC(=O)O[C@H]1C)C[C@H](O)[C@H]2C(=O)O [AMB, Amphotericin B]",MFC,[1],0.6 µg/mL
same,MIC,"[2]; ATCC90112, RPMI 1640, 37 °C, 48 h",0.05 µg/mL
same,MFC,"[2]; ATCC90112, SDA plates, 37 °C, 72 h",0.4 µg/mL
same,Kidney Functions BUN,Male Wistar rats [3],66.52 ± 12.46 mg%
same,Kidney Functions Creatinine,Male Wistar rats [3],0.63 ± 0.11 mg%
same,Liver Functions ALT,Male Wistar rats [3],100.49 ± 20.95 IU/L
same,Liver Functions AST,Male Wistar rats [3],453.15 ± 120.19 IU/L
same,Hb,Male Wistar rats [4],13.22 ± 0.95 g%
same,Hematocrit,Male Wistar rats [4],37.01 ± 2.68%
same,RBCs,Male Wistar rats [4],7.09 ± 0.61 ×10^6/μL
same,WBCs,Male Wistar rats [4],17.90 ± 2.46 ×10^3/μL
